Laboratory results published in US20090220516A1, “Neuroprotection of retinal ganglion cells” (priority 2005, published 2009).
pEC50: −log10 of the molar value.

Legend:
[1] = system: retinal ganglion cells; assay: Cell viability studies: labeled retinal ganglion cells surviving after 24 hrs in mixed retinal cultures; assay type: cell-based, rat; conditions: 300 uM ATP alone, 24 hrs
Procedure: Pups PD2-6 from untimed pregnant Long-Evan rats (Jackson Laboratory Inc., Bar Harbor, Me.) were back-labeled by the injection of FluoroGold derivative aminostilbamidine (Molecular Probes, Eugene, Oreg.) based upon standard protocols. […] Using a Hamilton syringe affixed to a micromanipulator, a needle was inserted 0.8 mm lateral from the midline and 0.8 mm anterior to Bregma's line and a total of 2.5 μl dye was delivered to each side at a depth of 2 mm and 1 mm. The needle was retracted after a delay of 2 min to allow dye absorption and the wound was closed with 2-3 sutures. Preliminary examination of labeled retinal whole mounts confirmed an even distribution of dye, showing all cells were stained 2 days after injection, with no further increase in the number of labeled cells in subsequent days. Consequently, retinas containing labeled ganglion cells were dissociated 2-6 days after injection. Animals were sacrificed by i.p. injection of 50/5 mg/kg Ketamine/Xylazine followed by an overdose, in accordance with University of Pennsylvania IACUC approved protocols and the ARVO Statement on the Use of Animals in Ophthalmic and Vision Research.
The retina was dissected from each globe, washed in sterile Hanks' balanced salt solution (HBSS, Gibco, Inc Invitrogen Corp., Carlsbad, Calif.), then incubated in HBSS containing activated papain (4.5 U/ml; Worthington Biochemical Corp., Lakewood, N.J.) for 12 minutes at 37° C. Retinas were washed twice and triturated 50 times with a 1-ml glass pipette to dissociate cells. Cells were plated onto twelve 12-mm coverslips previously coated with poly-L-lysine. […] Retinal cells were incubated at 37° C. with 5% CO2.
Drugs were added to the culture medium at the time when cells were plated onto coverslips. […] All counts were performed in a masked fashion. In experiments involving antagonist pretreatment, drugs were added to the medium at the time of plating. After preincubation at 37° C., stock concentrations of BzATP were added directly to the cells to give the final concentration shown.
Data are presented as mean±standard error of the mean. Significance was evaluated using a Student's unpaired t test, with a p value <0.05 signifying significance. For cell viability studies, the number of experiments, n, represents the number of coverslips from which 80 fields were measured and averaged. All values were normalized to the mean control level for that day's matched set of experiments to control for variation in plating efficiency.

[2] = target: T1, rat P2X7 receptor (Rattus norvegicus, UniProt Q64663); conditions: cited from earlier work
T1 sequence (Q64663 1-595): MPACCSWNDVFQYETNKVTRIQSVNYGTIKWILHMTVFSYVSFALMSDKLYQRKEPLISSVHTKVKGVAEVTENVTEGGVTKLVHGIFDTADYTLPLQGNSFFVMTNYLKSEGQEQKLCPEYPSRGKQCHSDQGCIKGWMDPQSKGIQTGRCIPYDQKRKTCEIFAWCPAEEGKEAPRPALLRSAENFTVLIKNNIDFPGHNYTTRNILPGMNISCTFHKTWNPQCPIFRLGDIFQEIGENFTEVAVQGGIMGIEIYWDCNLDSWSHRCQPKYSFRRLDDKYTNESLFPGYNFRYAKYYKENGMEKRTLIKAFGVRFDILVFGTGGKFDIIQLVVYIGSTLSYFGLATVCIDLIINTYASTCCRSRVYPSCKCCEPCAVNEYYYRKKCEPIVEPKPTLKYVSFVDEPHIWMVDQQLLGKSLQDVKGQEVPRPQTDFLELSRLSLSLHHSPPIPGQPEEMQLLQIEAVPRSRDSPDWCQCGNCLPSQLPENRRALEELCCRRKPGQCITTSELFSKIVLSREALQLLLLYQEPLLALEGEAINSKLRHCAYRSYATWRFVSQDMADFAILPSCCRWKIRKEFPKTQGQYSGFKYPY

[3] = system: retina eyecup; assay: Pressure-triggered ATP release from the bovine retina eyecup; conditions: 30 μM NPPB, 15 minutes preincubation and in medium
Source text: C. ATP release by increased extracellular pressure is inhibited by the general chloride channel blocker NPPB, indicating physiologic significance. […] The ATP levels were normalized with the non-pressure and non NPPB eyecup control levels (white bar). Bars represent the mean±standard error. Numbers indicates the number of retina eyecups per experiment. We performed ANOVA test (Dunnett post-test) to obtain the significant differences indicated by a * symbol (p<0.05) as significant difference with control and ** (p<0.05) as significant difference with the pressure challenged eyecups.

Row | Compound | effect on ganglion cell survival [1] | pEC50 [2] | effect on ATP release induced by 20 mm Hg rise in extracellular pressure [3]
1 | Nc1ncnc2c1ncn2C1OC(COP(=O)(O)OP(=O)(O)OP(=O)(O)O)C(O)C1O (stereo not drawn) [ATP] | small but significant increase in cell survival | 3.52 | –
2 | O=C(O)c1cc([N+](=O)[O-])ccc1NCCCc1ccccc1 [NPPB, 5-nitro-2-(3-phenylpropyl-amino)benzoic acid] | – | – | inhibits the ATP release
